Data set [1] concerns the target T1, PPAR-α (Mus musculus, UniProt P23204). The settings on record: post-PET.
The target in data set [2] is T1, PPAR-α. The settings on record: dynamic PET 0–60 min post iv injection.
[3] abbreviates: PPAR-α overexpressing transgenic mice.

Values joined by “and” are separate entries in the source; they are usually repeats but may differ in a detail not shown here. Equal values may be shown once. Read-outs that look alike come from different tables or passages of the source.

T1 sequence (P23204 whole entry): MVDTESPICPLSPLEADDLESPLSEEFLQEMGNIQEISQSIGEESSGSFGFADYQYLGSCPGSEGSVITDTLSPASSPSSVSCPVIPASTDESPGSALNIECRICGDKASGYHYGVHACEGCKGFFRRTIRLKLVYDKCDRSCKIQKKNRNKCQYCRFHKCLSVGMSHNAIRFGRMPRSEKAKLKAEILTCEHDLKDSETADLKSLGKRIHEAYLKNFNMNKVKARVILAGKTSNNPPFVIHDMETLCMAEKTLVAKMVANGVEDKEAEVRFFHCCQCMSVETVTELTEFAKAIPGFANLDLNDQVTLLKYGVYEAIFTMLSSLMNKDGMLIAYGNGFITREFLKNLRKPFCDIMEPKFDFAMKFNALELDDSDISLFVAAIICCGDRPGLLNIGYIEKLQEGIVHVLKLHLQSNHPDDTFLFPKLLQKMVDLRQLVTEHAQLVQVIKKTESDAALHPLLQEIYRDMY

Compound `CC(C)(Sc1ccc(CCN(CCCCC2CCCCC2)C(=O)Nc2ccc(O[11CH3])cc2)cc1)C(=O)O` [[^11C]KSM-01] had a Cardiac tissue uptake on PPAR-α [1] (setting [3]) of 1.09 ± 0.246 %ID/g. In addition, the Blood uptake at PPAR-α [1] (TG (male MHC PPAR-α overexpressing transgenic mice)) was determined as 0.42±0.14 %ID/g. On PPAR-α [1] (TG), this compound registered a Kidney uptake of 2.58±0.56 %ID/g, a Liver uptake of 55.031 ± 4.926 %ID/g, a Lung uptake of 2.65±0.34 %ID/g and a Muscle uptake of 0.36±0.15 %ID/g. The Spleen uptake on PPAR-α [1] (TG) is recorded as 1.33±0.29 %ID/g. Further, the Blood uptake at PPAR-α [1] (WT (wild type mice)) was 0.42±0.10 %ID/g. On PPAR-α [1] (WT), the Liver uptake was 60.699 ± 0.774 %ID/g and 60.69±0.77 %ID/g; the Lung uptake is on record as 2.11±0.31 %ID/g; the Muscle uptake is listed as 0.35±0.18 %ID/g; the Spleen uptake worked out at 1.55±0.14 %ID/g. This compound also displayed a Cardiac tissue uptake on PPAR-α [1] (wild type littermates) of 0.479 ± 0.007 %ID/g. Also, the “Standard uptake value (SUV)” value at PPAR-α [2] (setting [3]) came out at 0.68±0.007. Moreover, at PPAR-α [2] (control (wild-type) mice), the “Standard uptake value (SUV)” value is recorded as 0.37±0.09.

The record behind these values is PMC3477601 (Bioorganic & medicinal chemistry letters, 2012).
